In patent US5169863A, “Hypersphyxia-causing methods” (K.K. Ueno Seiyaku Oyo Kenkyujo, priority 1988, dated 1992):

What was measured:
[1] = changing rate of blood pressure and heart rate by intravenous injection in anesthetized rats; assay type: in vivo, Wister male rats; conditions: for change in vivo at 1 mg/kg: Rattus norvegicus; for blood pressure effect (in words): Example 1 conclusion; for changing rate (%) of blood pressure / changing rate (%) of heart rate: Table 2
Description: (blood pressure, heart rate increasing action by intravenous injection) Wister male rats (8 weeks old) were used as test animals. The rats were applied to anesthesia by intraperitoneal administration with 1.25 g/kg of urethane. The blood pressure was determined by inserting a polyethylene tube into a femoral artery, which was connected with a pressure transducer. The heart rate was determined from R wave of electrocardiograms (ECG) induced by standard limb lead II with a tachometer. Each test compound was dissolved in ethanol and intravenously administered to rats in 1 mg/kg diluted with Ringer's solution just before use. The maximum concentration of ethanol was 2 percent. An ethanol-containing Ringer without any test compound was used as a control to confirm the influence of the ethanol in each experiment. Each changing rate (%) in the blood pressure and heart rate before and after administration was determined, and the average of 3-4 experiments was shown in Table 1. Changing rates of blood pressure and heart rate were determined in the same manner as described in Example 1 except that the test compounds 60, 61 and 62 were used in different concentrations instead of the test compounds 1-55.

[2] = progressing a breath (change rate of breath rate); assay type: in vivo, Wister male rats; conditions: Rattus norvegicus, iv, tail vein, rats
Description: Wister male rats (8 weeks old) were applied to anesthesia by intraperitoneal administration with 1.25 g/kg of urethane. A pick-up for breath was fixed on a top of a rat's nose, and the breath curve was recorded on a polygraph while the breath rate was counted with a tachometer.
Each test compound was dissolved in ethanol and administered to rats through a tale vein in 1 mg/kg as diluted with Ringer's solution just before use. The maximum concentration of ethanol was 2 percent. Ringers solution containing ethanol but not containing test compound was administered at every experiment as a control. The change rates (%) of the breath rate before and after administration were determined, and evaluated as progressing activity of breath.

[3] = Table 1, read-out: changing rate of blood pressure
[4] = Table 1, read-out: changing rate of heart rate

| Compound | change in vivo at 1 mg/kg [1, 3] [%] | change in vivo at 1 mg/kg [1, 4] [%] | change in vivo at 1 mg/kg [2] [%] | other results |
| --- | --- | --- | --- | --- |
| CCCCCC(=O)CC[C@H]1[C@H](O)CC(=O)[C@@H]1C/C=C\CC(C)CC(=O)OC (stereo partly drawn) [Compound 28, 13,14-dihydro-15-keto-3R,S-methyl-PGE2 methyl ester] | 12 | 33 | 40 | – |
| CCCCCC(=O)CC[C@H]1[C@H](O)CC(=O)[C@@H]1C/C=C\CCCC(=O)O [Compound 20, 13,14-dihydro-15-keto-PGE2, reference compound] | -15 | 0 | 12 | blood pressure effect (in words) [1]: blood pressure decreasing effect |
| CCCCCC(F)C(=O)CC[C@H]1[C@H](O)CC(=O)[C@@H]1C/C=C\CCCC(=O)OC (stereo partly drawn) [Compound 39, 13,14-dihydro-15-keto-16R,S-fluoro-20-methylPGE2 methyl ester] | 20 | 47 | – | – |
| CCCCC(F)C(=O)CC[C@H]1[C@H](C)CC(=O)[C@@H]1C/C=C\CCCC(=O)OCC (stereo partly drawn) [Compound 40, 13,14-dihydro-15-keto-16R,S-fluoro-11-dehydroxy-11R-methyl-PGE2 ethyl ester] | 17 | 27 | 16 | – |
| CCCCC[C@H](O)/C=C/[C@H]1[C@H](O)CC(=O)[C@@H]1C/C=C\CCCC(=O)OC [Compound 58, PGE2 methyl ester, reference compound] | -11 | 33 | 35 | blood pressure effect (in words) [1]: blood pressure decreasing effect |
| COC(=O)CCCCC(=O)C[C@H]1C(=O)C[C@@H](O)[C@@H]1CCC(=O)CCCC(C)C [Compound 14, 13,14-dihydro-6,15-diketo-19-methyl-PGE1 methyl ester] | 12 | 22 | 33 | – |
| CCCCCC(=O)CC[C@H]1[C@H](C)CC(=O)[C@@H]1C/C=C\CCCC(=O)OCC [Compound 41, 13,14-dihydro-15-keto-11-dehydroxy-11R-methylPGE2 ethyl ester] | 11 | 26 | 20 | – |
| CCCCC(C)C(=O)CC[C@H]1[C@H](O)CC(=O)[C@@H]1CC(=O)CCCCC(=O)OCC (stereo partly drawn) [Compound 11, 13,14-dihydro-6,15-diketo-16R,S-methyl-PGE1 ethyl ester] | 23 | 18 | 34 | – |
| CCCCCC(=O)CC[C@H]1[C@H](O)CC(=O)[C@@H]1C/C=C\CC=CC(=O)OC [Compound 27, 13,14-dihydro-15-keto-Δ^2 -PGE2-methyl ester] | 6 | 21 | 11 | – |
| CCC[C@H](C)CC(=O)CC[C@H]1[C@H](O)CC(=O)[C@@H]1C/C=C\CCCC(=O)OC [Compound 42, 13,14-dihydro-15-keto-17S-methyl-PGE2 methyl ester] | 12 | 7 | 28 | – |
| CCCCCC(=O)CC[C@H]1[C@H](O)CC(=O)[C@@H]1CCCCCCC(=O)O [Compound 1, 13,14-dihydro-15-keto-PGE1, reference compound] | -6 | 6 | 34 | – |
| CCCCCC(=O)CC[C@H]1[C@H](O)CC(=O)[C@@H]1C/C=C\CCCC(=O)OCc1ccccc1 [Compound 25, 13,14-dihydro-15-keto-PGE2 benzyl ester] | 2 | 5 | 22 | – |
| COCCCCC(C)(C)C(=O)CC[C@H]1[C@H](O)CC(=O)[C@@H]1C/C=C\CCCC(=O)OC [Compound 48, 13,14-dihydro-15-keto-16,16-dimethyl-20-methoxy-PGE2 methyl ester] | 15 | 30 | – | – |
| COC(=O)CCCCC(=O)C[C@H]1C(=O)C[C@@H](CO)[C@@H]1CCC(=O)CCCC(C)C [Compound 16, 13,14-dihydro-6,15-diketo-11-dehydroxy-11R-hydroxymethyl-19-methyl-PGE1 methyl ester] | 26 | 25 | – | – |
| CCCCCCC(=O)CC[C@H]1[C@H](O)CC(=O)[C@@H]1CCCCCCC(=O)OC [Compound 60, 13,14-dihydro-15-keto-20-methyl-PGE1 methyl ester] | – | – | – | changing rate (%) of blood pressure ([1]; 0.1 mg/kg): +17%; changing rate (%) of heart rate ([1]; 0.1 mg/kg): +14%; changing rate (%) of blood pressure ([1]; 1 mg/kg): +13%; changing rate (%) of heart rate ([1]; 1 mg/kg): +38% |
| CCCCC(F)(F)C(=O)CC[C@H]1[C@H](O)CC(=O)[C@@H]1C/C=C\CCCC(=O)OC [Compound 61, 13,14-dihydro-15-keto-16,16-difluoro-PGE2 methyl ester] | – | – | – | changing rate (%) of blood pressure ([1]; 0.01 mg/kg): +13%; changing rate (%) of heart rate ([1]; 0.01 mg/kg): +14%; changing rate (%) of blood pressure ([1]; 0.1 mg/kg): +15%; changing rate (%) of heart rate ([1]; 0.1 mg/kg): +30%; changing rate (%) of blood pressure ([1]; 1 mg/kg): +27%; changing rate (%) of heart rate ([1]; 1 mg/kg): +26% |
| CCCCCC(=O)CC[C@H]1[C@H](O)CC(=O)[C@@H]1CCCCC=CC(=O)OC [Compound 3, 13,14-dihydro-15-keto-Δ^2 -PGE1 methyl ester] | 32 | 43 | – | – |
| CCCCCC(=O)CC[C@H]1[C@H](C)CC(=O)[C@@H]1CC(=O)CCCCC(=O)OC [Compound 17, 13,14-dihydro-6,15-diketo-11-dehydroxy-11R-methyl-PGE1 methyl ester] | 46 | 58 | – | – |
| CCCCCCCCC(=O)CC[C@H]1[C@H](O)CC(=O)[C@@H]1C/C=C\CCCC(=O)OC [Compound 54, 13,14-dihydro-15-keto-20-n-propyl-PGE2 methyl ester] | 18 | 18 | – | – |
| CCOC(=O)CCCCC(=O)C[C@H]1C(=O)C[C@@H](O)[C@@H]1CCC(=O)CCC(C)CC (stereo partly drawn) [Compound 62, 13,14-dihydro-6,15-diketo-18-methyl-PGE1 ethyl ester] | – | – | – | changing rate (%) of heart rate ([1]; 0.1 mg/kg): +6%; changing rate (%) of heart rate ([1]; 1 mg/kg): +13% |
| CCCCCCCC(=O)CC[C@H]1[C@H](O)CC(=O)[C@@H]1C/C=C\CCCC(=O)OCC [Compound 52, 13,14-dihydro-15-keto-20-ethyl-PGE2 ethyl ester] | 13 | 0 | – | – |
| CCCCC[C@H](O)/C=C/[C@H]1[C@H](O)CC(=O)[C@@H]1CCCCCCC(=O)O [Compound 56, PGE1, reference compound] | -54 | 10 | – | – |
| CCCCC(F)C(=O)/C=C/[C@H]1[C@H](O)CC(=O)[C@@H]1C/C=C\CCCC(=O)OC (stereo partly drawn) [Compound 55, 15-keto-16R,S-fluoro-PGE2 methyl ester] | 31 | 58 | – | – |
| CCCCC(F)C(=O)CC[C@H]1[C@H](C)CC(=O)[C@@H]1CC(=O)CCCCC(=O)OCC (stereo partly drawn) [Compound 19, 13,14-dihydro-6,15-diketo-16R,S-fluoro-11R-dehydroxy-11R-methyl-PGE1 ethyl ester] | 45 | 51 | – | – |
| CCCCCCCC(=O)CC[C@H]1[C@H](C)CC(=O)[C@@H]1C/C=C\CCCC(=O)OC [Compound 53, 13,14-dihydro-15-keto-20-ethyl-11-dehydroxy-11R-methyl-PGE2 methyl ester] | 17 | 20 | – | – |
